# Source: patent US7314878B2, “Piperazine benzothiazoles as agents for the treatment of cerebral ischemic disorders or CNS disorders” (Laboratories Serono SA, priority 2002, dated 2008)
# Where two headings read alike, the source gives them in different places.
# What was measured:
# [1] = system: neuronal death in CA1/CA2 subfields of the hippocampus; experiment: Global ischemia in gerbils (bilateral carotid occlusion); assay type: in vivo; details: 40 mg per kg ip, 15 min, 24 h and 48 h after reperfusion; gerbil
# Text: b) Global Ischemia in Gerbils
# The ability of the JNK inhibitors described in formula I to protect cell death during a stroke event may be assessed using the following protocol:
# The gerbil bilateral carotid occlusion is a well-described animal model of acute ischemic stroke and involves relatively easy surgical techniques.
# The neuronal degeneration in the hippocampus develops over several days and is often referred as “delayed neuronal death”. In addition, the neurodegeneration observed histologically is obvious and easily quantified (11). Furthermore, the histopathology seen in the gerbil is similar to that observed in the hippocampal CA1 region of the human brain following a cardiac arrest. Behavior observations, such as memory tests, could even be performed in the case of gerbils. This kind of tests for appreciation of the degree of recovery is not easily manageable in other models such as in rat whose learning abilities are much poorer (12).
# The neuroprotective effect according to formula I to protect may be assessed using-the gerbil global ischemia model and such a protocol: […]
# [2] = Assessment of the BBB passage: brain and plasma sampling; assay type: in vivo, Sprague Dawley rats; details: rat, i.v. 10 mg/kg; for concentration at 0.25 h / concentration at 0.5 h / concentration at 1 h: pooled n = 2
# Text: c) Assessment of the BBB Passage: Brain and Plasma Sampling
# The compounds of the present invention are useful in the treatment and/or prophylaxis of cerebral ischemic disorders or CNS disorders. Specifically, the compounds of the present invention show a good capacity to cross the blood-brain barrier (EBB). The BBB passing capacity of the compounds according to formulae I or II may be assessed using the below protocols. The objective of this assay is to quantify the amount of the test compounds according to formulae I or II in the brain of rats following i.v. administration.
# Six male Crl:CD(SD)Br Sprague Dawley rats (about 8 weeks old and having a weight of about 300 g) were divided into the 3 following groups:
# 2 animals for i.v. administration (10 mg/kg of test compound of formula I in 0.9% NaCl for injection). The test compound is administered by single dose (dose regimen). The sampling is performed at 0.25 h after sacrifice.
# 2 animals for i.v. administration (10 mg/kg of test compound of formula I in 0.9% NaCl for injection). The test compound is administered by single dose (dose regimen). The sampling is performed at 0.5 h after sacrifice.
# 2 animals for i.v. administration (10 mg/kg of test compound of formula I in 0.9% NaCl for injection). The test compound is administered by single dose (dose regimen). The sampling is performed at 1 h after sacrifice.
# At each scheduled killing time, the animals of the corresponding group are deeply anaesthetised with diethyl ether. The blood for the corresponding blood samples is collected into heparinised tubes and centrifuged to remove the blood cells thus providing plasma. Plasma samples obtained at each sampling time (i.e. at t=0.25 h, 0.5 h, 1 h) from the rats of each group after administration of the test compound of formula (I) are pooled in order to obtain 1 pooled sample per sampling time per group. Rats are then sacrificed by exsanguination.
# For the-brain sampling, the whole brain (cerebrum and cerebellum) of the sacrificed animals is removed. Brain from two animals per sampling time (i.e. at t=0.25 h, 0.5 h, 1 h after administration) are pooled in order to obtain one pooled sample per sampling time. Each pooled sample is homogenized in a solvent mixture (acetonitrile/methanol/dimethyl-sulfoxide, 50:48:2 by volume) centrifuged and the supernatant analyzed for the test compound.
# Concentrations in plasma samples and brain homogenates are quantified according to an analytical HPLC-MS/MS method, properly developed for the compound.
# The test compound used in this assay is the one set out in Example 1 (i.e. 1,3-benzothiazol-2-yl[2-({4-[(4-methylpiperazin-1-yl)methyl]-benzyl}oxy)pyrimidin-4-yl]acetonitrile.
smiles,measurement,setting,value
"CN1CCN(Cc2ccc(COc3nccc(C(C#N)c4nc5ccccc5s4)n3)cc2)CC1 (centres unmarked) [Example 1, 1,3-benzothiazol-2-yl[2-({4-[(4-methylpiperazin-1-yl)methyl]-benzyl}-oxy)pyrimidin-4yl]acetonitrile]",inhibition of neuronal death,[1],about 60%
same,concentration at 0.25 h,"[2]; male, Crl:CD(SD)Br Sprague Dawley, brain, iv, 0.25 h, read-out: Brain concentration",919 ng/g
same,concentration at 0.5 h,"[2]; male, Crl:CD(SD)Br Sprague Dawley, brain, iv, 0.5 h, read-out: Brain concentration",657 ng/g
same,concentration at 1 h,"[2]; male, Crl:CD(SD)Br Sprague Dawley, brain, iv, 1 h, read-out: Brain concentration",679 ng/g
same,Kp at 0.25 h,"[2]; male, Crl:CD(SD)Br Sprague Dawley, brain/plasma, iv, 0.25 h, read-out: Brain/Plasma ratio",0.32
same,Kp at 0.5 h,"[2]; male, Crl:CD(SD)Br Sprague Dawley, brain/plasma, iv, 0.5 h, read-out: Brain/Plasma ratio",0.3
same,Kp at 1 h,"[2]; male, Crl:CD(SD)Br Sprague Dawley, brain/plasma, iv, 1 h, read-out: Brain/Plasma ratio",0.34
same,concentration at 0.25 h,"[2]; male, Crl:CD(SD)Br Sprague Dawley, plasma, iv, 0.25 h, read-out: Plasma concentration",2840 ng/mL
same,concentration at 0.5 h,"[2]; male, Crl:CD(SD)Br Sprague Dawley, plasma, iv, 0.5 h, read-out: Plasma concentration",2160 ng/mL
same,concentration at 1 h,"[2]; male, Crl:CD(SD)Br Sprague Dawley, plasma, iv, 1 h, read-out: Plasma concentration",1980 ng/mL
same,passage into the brain,[2]; 0.25-1 h,considerable and sustained passage of the test compound into the brain
